In paper PMC12589998, “Development and validation of a UHPLC-QqQ-MS/MS method for simultaneous determination of fifteen major components from Oroxyli seed extract in rat plasma and its application in the pharmacokinetic study” (Frontiers in Pharmacology, 2025):
Entries after “also recorded” stand apart in the source; their conditions may differ. Where two headings read alike, the source gives them in different places.

Tests used:
[1] = Stability of the analytes in rat plasma samples under storage conditions; assay type: physicochemical; details: n = 6
Procedure: The bioanalytical method validation was evaluated for specificity, linearity, sensitivity, precision and accuracy, recovery, matrix effect, and stability to ensure compliance with the U.S. Food and Drug Administration (FDA) guidance on precise quantitative analysis ([Center for Drug Evaluation and Research of the U.S., 2018]). The assessment of specificity was conducted by comparing the chromatograms obtained from blank plasma, blank plasma spiked with the target components, and samples gathered following the oral administration of OS extract. Calibration curves were constructed by plotting the ratio for the peak area of the analyte to IS versus the concentration, with 1/x^2 serving as the weighting factor. The lower limit of quantification (LLOQ) was defined as the concentration at which a signal to noise ratio of […] 10 was achievable. The evaluation of precision and accuracy involved the analysis of six QC samples, both within a single day and over 3 consecutive days. Accuracy was expressed as the relative error (RE), whereas precision was gauged via relative standard deviation (RSD). Extraction recovery was ascertained by juxtaposing the responses of analytes in extracted samples against those in samples that were spiked post-extraction. The matrix effect was scrutinized by determining the ratio of the responses of the analytes in post-extraction spiked samples to those in the mixed standard solution. The stability of the analytes in plasma samples was explored under diverse conditions: encompassing a 12-h period in an autosampler, a 4-h interval at room temperature, three cycles of freezing–thawing, and a 7-day duration at −80 °C.
The retention times of the analyte peaks were consistent with those in the spiked samples. […] The LLOQs for chrysin, chrysin-7-O-β-D-glucuronide, hispidulin, wogonoside, quercetin, quercetin-7-O-β-D-glucoside, baicalin, baicalein, acacetin, oroxin A, oroxin B, oroxylin A, oroxylin A-7-O-β-D-glucuronide, apigenin, and scutellarein were 1.0, 2.0, 1.0, 0.3, 1.0, 0.1, 9.0, 6.0, 0.3, 6.0, 4.0, 1.0, 2.0, 0.5, and 0.3 ng/mL, respectively. In Supplementary Table S2, the RE for accuracy is between −13.77% and 12.55%, and the RSD for precision is below 14.55% (both intra- and inter-day). […] The matrix effect varied from 60.15% to 115.53%, with RSD values below 10.54%. In Supplementary Table S4, the RSD values for stability of the analytes are found to be lower than 13.98%, meaning that these components were stable under the following conditions: encompassing a 12-h period in an autosampler, a 4-h interval at room temperature, three cycles of freezing and thawing, and a 7-day duration at −80 °C.

[2] = Pharmacokinetic study in rats after oral administration of OS extract (UHPLC-QqQ-MS/MS of plasma); assay type: in vivo, rat; details: for concentration at 0.5 h / AUC(0-t) / AUC(0-inf) / Cmax / half-life / Tmax: male
Procedure: The UHPLC-QqQ-MS/MS system consisted of a 1290 UHPLC and a 6470 mass spectrometer (Agilent Technologies). Chromatographic separation was realized on utilizing an ACQUITY UPLC BEH C18 column (2.1 × 100 mm, 1.7 μm) maintained at 35 °C. The mobile phase consisting of 0.1% formic acid in water (A) and acetonitrile (B) was utilized with the elution program set at 0 min–1 min, 5% B–30% B; 1 min–4 min, 30% B– 50% B; 4 min–8 min, and 50% B–90% B. The injection volume was 5 μL, and the flow rate was 0.3 mL/min. The mass spectrometry parameters in the negative ion mode, gas temperature, flow rate, and nebulizer pressure were 300 °C, 7 L/min, and 35 psi, respectively. The mass spectra properties of the 15 analytes and the IS are illustrated in Table 1.
To 100 μL of the plasma sample, 20 μL of methanol, 20 μL of IS solution (methylparaben, 1 μg/mL), and 5 μL of formic acid were added and vortexed for a duration of 2 min. Subsequently, the mixture underwent extraction with 800 μL of acetonitrile for 3 min. Following 10 min of centrifugation at 12,000 g, the supernatant was collected and evaporated to dryness under N2 to obtain the residue. Finally, the residue was reconstituted in 50% methanol (100 μL) and utilized for analysis.
Before initiating the study, six male SD rats underwent a 12-h fasting period, during which they were granted unrestricted access to water. Then, the rats were administered an oral dose of 3 g/kg of the OS extract, which had been dissolved in 0.5% CMC-Na aqueous solution. Blood samples, approximately 200 μL each, were collected at various time points: before administration and at 0.03, 0.08, 0.17, 0.25, 0.5, 0.75, 1, 2, 4, 6, 8, 10, 12, 24, 36, and 48 h post-administration. Following 10 min of centrifugation at 6,000 g, the resultant samples were stored at −80 °C.
The developed method was effectively applied to study the pharmacokinetics in rats following oral administration of the OS extract. […] This was likely due to their low concentrations in the OS extract. Ultimately, nine components (chrysin, chrysin-7-O-β-D-glucuronide, baicalin, baicalein, oroxin A, oroxin B, oroxylin A, oroxylin A-7-O-β-D-glucuronide, and scutellarein) were successfully fitted with pharmacokinetic parameters. The average plasma concentration–time profiles of these substances are depicted in Figure 3. […] All data were presented as the mean ± standard deviation (Mean ± SD).

[3] = spiked concentration 1600 ng/mL

| SMILES | Measured, -80°C for 7 days ([1]; spiked concentration 10 ng/mL) [ng/mL] | Measured, Autosampler for 12 h ([1]; spiked concentration 10 ng/mL) [ng/mL] | Measured, Room temperature for 4 h ([1]; spiked concentration 10 ng/mL) [ng/mL] | Measured, Three freeze-thaw cycles ([1]; spiked concentration 10 ng/mL) [ng/mL] | Measured, -80°C for 7 days ([1]; spiked concentration 100 ng/mL) [ng/mL] | Measured, Autosampler for 12 h ([1]; spiked concentration 100 ng/mL) [ng/mL] | Measured, Room temperature for 4 h ([1]; spiked concentration 100 ng/mL) [ng/mL] | Measured, Three freeze-thaw cycles ([1]; spiked concentration 100 ng/mL) [ng/mL] | Measured, -80°C for 7 days [1, 3] [ng/mL] | Measured, Autosampler for 12 h [1, 3] [ng/mL] | Measured, Room temperature for 4 h [1, 3] [ng/mL] | Measured, Three freeze-thaw cycles [1, 3] [ng/mL] | other results |
| --- | --- | --- | --- | --- | --- | --- | --- | --- | --- | --- | --- | --- | --- |
| COc1c(O[C@@H]2O[C@H](C(=O)O)[C@@H](O)[C@H](O)[C@H]2O)cc2oc(-c3ccccc3)cc(=O)c2c1O [Oroxylin A-7-O-β-D-glucuronide, oroxylin A-7-O-β-D-glucuronide] | 9.25 ± 0.47 | 9.44 ± 1.32 | 11.03 ± 0.43 | 9.21 ± 0.83 | 95.03 ± 7.93 | 98.52 ± 5.58 | 108.86 ± 4.87 | 90.02 ± 5.94 | 1626.95 ± 164.45 | 1793.11 ± 46.98 | 1799.31 ± 27.98 | 1550.12 ± 77.94 | concentration at 0.5 h ([2]; SD, 3 g/kg, rat plasma collected 0.5 h after oral administration of the OS extract, read-out: Concentration printed in MRM chromatogram of plasma sample (Figure 2C)): 61 ng/mL; AUC(0-t) ([2]; rat plasma, oral 3 g/kg OS extract, n = 6, mean ± SD, read-out: AUC(0-t)): 11400 ng·h/mL; AUC(0-inf) ([2]; rat plasma, oral 3 g/kg OS extract, n = 6, mean ± SD, read-out: AUC(0-∞)): 11600 ng·h/mL; Cmax ([2]; rat plasma, oral 3 g/kg OS extract, n = 6, mean ± SD, read-out: Cmax): 912 ± 350 ng/mL; half-life ([2]; rat plasma, oral 3 g/kg OS extract, n = 6, mean ± SD, read-out: T1/2 (converted)): 7.22 ± 1.04 h; Tmax ([2]; rat plasma, oral 3 g/kg OS extract, n = 6, mean ± SD, read-out: Tmax): 9.6 ± 1.67 h; Shape of plasma concentration-time curve ([2]; rat plasma after oral OS extract): significant bimodal phenomena; also recorded: clear bimodal phenomena |
| O=c1cc(-c2ccccc2)oc2cc(O)cc(O)c12 [Chrysin, chrysin] | 9.25 ± 0.47 | 11.26 ± 1.24 | 10.87 ± 0.54 | 9.15 ± 0.40 | 91.73 ± 5.32 | 101.85 ± 8.18 | 99.57 ± 5.36 | 90.99 ± 3.81 | 1539.20 ± 116.03 | 1687.80 ± 77.00 | 1601.59 ± 94.45 | 1525.21 ± 82.94 | concentration at 0.5 h ([2]; SD, rat, in vivo, po): 73 ng/mL; AUC(0-inf) ([2]; SD, rat, in vivo, po, 3 g/kg): 589 ± 303 ng·h/mL; AUC(0-t) ([2]; SD, rat, in vivo, po, 3 g/kg): 550 ± 294 ng·h/mL; Cmax ([2]; SD, rat, in vivo, po, 3 g/kg): 519 ± 197 ng/mL; Tmax ([2]; SD, rat, in vivo, po, 3 g/kg): 0.06 ± 0.03 h; half-life ([2]; SD, rat, in vivo, po, 3 g/kg): 4.25 ± 2.01 h |
